Data on 2 compounds can be found in ChEMBL document CHEMBL1148062, “Cylindol A, a novel biphenyl ether with 5-lipoxygenase inhibitory activity, and a related compound from Imperata Cylindrica” (J Nat Prod, 1994).

For experiment [1], the target named is T1, Polyunsaturated fatty acid 5-lipoxygenase (Rattus norvegicus) (UniProt P12527).
T1 sequence (whole entry): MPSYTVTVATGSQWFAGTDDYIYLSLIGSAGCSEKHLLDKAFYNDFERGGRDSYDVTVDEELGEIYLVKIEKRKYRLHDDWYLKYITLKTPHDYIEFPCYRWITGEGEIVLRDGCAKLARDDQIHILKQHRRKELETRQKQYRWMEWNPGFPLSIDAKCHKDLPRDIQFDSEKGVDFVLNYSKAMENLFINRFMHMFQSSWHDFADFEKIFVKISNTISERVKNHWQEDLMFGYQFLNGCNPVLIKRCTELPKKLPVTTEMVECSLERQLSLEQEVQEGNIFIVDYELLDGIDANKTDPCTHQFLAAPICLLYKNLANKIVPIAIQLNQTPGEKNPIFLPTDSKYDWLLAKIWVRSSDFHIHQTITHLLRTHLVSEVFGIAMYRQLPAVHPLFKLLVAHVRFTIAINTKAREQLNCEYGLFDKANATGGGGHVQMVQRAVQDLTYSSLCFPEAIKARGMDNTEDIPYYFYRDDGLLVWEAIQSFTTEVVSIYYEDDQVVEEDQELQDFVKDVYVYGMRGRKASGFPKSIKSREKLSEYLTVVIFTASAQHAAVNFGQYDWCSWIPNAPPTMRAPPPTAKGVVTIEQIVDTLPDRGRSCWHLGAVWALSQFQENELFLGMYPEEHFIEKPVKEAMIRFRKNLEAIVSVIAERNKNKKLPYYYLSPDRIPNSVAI
The settings on record: RBL-1, 15 uM.
Description: Inhibition of rat 5-lipoxygenase in rat RBL1 cells at 15 uM

Experiment [2] deals with T1, Polyunsaturated fatty acid 5-lipoxygenase (Rattus norvegicus). Nature of the experiment: Inhibition of rat 5-lipoxygenase in rat RBL1 cells at 30 uM. The settings on record: RBL-1. In kind it is cell-based.

With `O=C1CCN(c2ccccc2)N1`, in experiment [1], the inhibition came out at 50%.
In experiment [2], `COC(=O)c1ccc(O)c(Oc2cc(C(=O)OC)ccc2O)c1` came in with an inhibition of 64%.

For orientation: inhibition means the change of the read-out against control, counted positive when it falls. Lower therefore signals little suppression.
